Patent US20120035187A1 (priority 2009, published 2012)
Where two headings read alike, the source gives them in different places. Marks after values point to notes of the source that are not given here.

Legend:
[1] = test system: intracellular cyclic adenosine monophosphate (AMP); test: Increment of intracellular cyclic AMP; format: cell-based
[2] = Body weight of hamsters with cerebellar ataxia during administration; format: in vivo, hamster; conditions: compared between groups administered with PBS, NK-4 and IGF-1
[3] = test system: hamsters with cerebellar ataxia; test: Concentration of glutamic acid in cerebrospinal fluid (CSF); format: in vivo, hamster; conditions: 10-weeks of age
Source text: (§1) Since NK-4 was confirmed to have a neurodegenerative inhibitory action in Experiment 1, hamsters with cerebellar ataxia (cerebellar ataxia is called “cerebellar A” and hamsters with cerebellar ataxia are called “hamsters with cerebellar A”, hereinafter) as a suitable model for human neurodegenerative diseases (e.g., spinal cerebellar degeneration) were subjected to examine the influence of NK-4 administration on their behaviors and brain tissues. Twenty-five hamsters with natural mutation (Nna1 inhibition), which are known to lose Purkinje's cells after three-weeks of age and then induce a spontaneous onset of kinetic motor ataxia after seven-weeks of age (see Akita K. et al., “J. Neurogenetics”, Vol. 21, pp. 19-29, 2007), had been fed at Hayashibara Biochemical Laboratories., Inc., Okayama, Japan, were randomly allocated to the test groups 1 to 5, five heads in each group, as shown in Table 2. Prior to the onset of cerebellar A (at three-weeks of age), PBS was started to administer to the hamsters in the test group 1 at a dose of 10 ml/kg/day. Prior to the onset of cerebellar A (at three-weeks of age), NK-4 was started to be administered to the hamsters in the test groups 2 to 4 at a daily dose of 20 μg/kg, 100 μg/kg or 500 μg/kg. “IGF-1, human, a product name of insulin-like growth factor, commercialized by Assaypro LLC, MO, USA. These administered ingredients were intraperitoneally administered daily to hamsters once a day up to 10-weeks of age. The degree of symptom of cerebellar A and the improvement effect on the symptom by NK-4 were evaluated with an index of improvement in motor coordination of hamsters by conducting once a week the later described rotarod test and the slant tolerance test. At the age of 10-weeks, the hamsters were subjected to counting the falling down frequency and extracted their brains, which were then histologically evaluated. In parallel, the concentration of glutamic acid in the bloods and cerebrospinal fluids (CSF) of the hamsters was assayed. As a test group 6, five normal hamsters, with the same age as the hamsters with cerebellar A used in the test groups 1 to 5, were provided and tested similarly as the hamsters with cerebellar A in such a manner of intraperitoneally administering PBS to them at a dose of 10 ml/kg/day once a day up to 10-weeks of age.
The content of glutamic acid, which is used for synthesizing gamma-amino butyric acid (GABA) as a main excitatory neurotransmitter and inhibitory neurotransmitter that regulate higher-order functions such as memory/learning in mammalian central nervous system, was assayed. In harvesting the brains from the above hamsters, they were blooded from their postcavas, followed by collecting CSF for use in the later described assay for glutamic acid concentration. […]

APP Tg mouse [4] = test: Water maze test, APP transgenic mouse; format: in vivo; conditions: for Water maze test 1st day / Water maze test 2nd day / Water maze test 3rd day / Water maze test 4th day: time required for arriving the platform
PC12-HS cells [5] = format: cell-based, rat
APP Tg mouse [6] = test: Passive avoidance test, APP transgenic mouse; format: in vivo; conditions: for Passive avoidance reaction: intraperitoneal, five times a week for 12 weeks
[7] = test system: hamsters with cerebellar ataxia; test: Histological evaluation of cerebellum of hamsters with cerebellar ataxia; format: in vivo, hamster; conditions: 10-weeks of age; for Cerebellar volume (mm^3) / Number of Purkinje cells (cells) / Number of granular cells (cells/20000 μm^2): cerebellar ataxia hamsters; for Number of subject (head) with apparent demyelination in cerebellar white matter: five heads per group
Source text: as §1
Hamsters, 10-weeks of age, after completion of test on coordinated movement such as a confirmation of falling down frequency were intraperitoneally received 50 mg/kg pentobarbital, bled from their postcavas to let them die, and extracted their cerebra and cerebella, followed by fixing them with a 10% by volume of formalin solution. The resulting cerebra and cerebella were photographed with a digital camera apart from a prescribed high position and measured diameters in sagittal and horizontal directions for each photograph. The volumes of cerebra and cerebella were respectively determined by calculating with the formula, (length of sagittal direction)^2×(length of horizontal direction)×0.5; and the data from five heads in each group were averaged. The hamsters with cerebella A used in this experiment are known to reduce cell density of Purkinje's cells and granular cells. Cerebellar slices, which had been cut out in sagittal direction, were stained with hematoxylin-eosin stain, and microscopically observed to count the total number of Purkinje's cells within a Purkinje's cell layer ([…] I to X) and the number of granular cells per unit area, and to confirm subjects in which demyelination was observed within their cerebellar white matters. The results are in Table 5 in parallel.

PC12-HS cells [8] = test system: PC12-HS cells
Procedure: The cells were cultured with a serum-free medium as a nutrition-starvation-condition. PC12-HS cells were subjected to tests after stock cultured cells thereof were thawed and cultured with a D-MEM medium supplemented with 10% by volume of fetal bovine serum (FBS). […] As a control, cells were cultured with a NK-4 free D-MEM medium and, similarly as above, cultured after the addition of an ALAMAR BLUE solution commercialized by Trek Diagnostic Systems Inc., Ohio, USA, and measured for fluorescent intensity for each well. Relative values for cells in each well were determined when the fluorescent intensity for control was regarded as 100%, and the data are also shown in Table 1 as survival percentages (%) of cells in each well.

[9] = i.p. five times a week for 12 weeks

CCN1C=CC(=CC=C(C=Cc2cc[n+](CC)c3ccccc23)c2cc[n+](CC)c3ccccc23)c2ccccc21.[I-].[I-] [NK-4]
increment of intracellular cyclic adenosine monophosphate (AMP) [1]: inducing the increment of intracellular cyclic adenosine monophosphate (AMP) | body weight of hamsters with cerebellar A, weighed once every week up to 10-weeks of age [2]: no significant difference | Concentration of glutamic acid in cerebrospinal fluid ([3]; 20 μg/kg body weight): 7.2 ± 0.8 µM | Concentration of glutamic acid in cerebrospinal fluid ([3]; 100 μg/kg body weight): 8.7 ± 2.6 µM | Concentration of glutamic acid in cerebrospinal fluid ([3]; 500 μg/kg body weight): 9.5 ± 2.9 µM | Water maze test 1st day (APP Tg mouse [4]; dose 100 μg/kg body weight): 101 ± 38 | Water maze test 2nd day (APP Tg mouse [4]; dose 100 μg/kg body weight): 73 ± 13 | Water maze test 3rd day (APP Tg mouse [4]; dose 100 μg/kg body weight): 59 ± 10 | Water maze test 4th day (APP Tg mouse [4]; dose 100 μg/kg body weight): 34 ± 10 | Water maze test 1st day (APP Tg mouse [4]; dose 500 μg/kg body weight): 116 ± 3 | Water maze test 2nd day (APP Tg mouse [4]; dose 500 μg/kg body weight): 63 ± 12 | Water maze test 3rd day (APP Tg mouse [4]; dose 500 μg/kg body weight): 40 ± 7 | Water maze test 4th day (APP Tg mouse [4]; dose 500 μg/kg body weight): 27 ± 7 | water maze test (in words) (APP Tg mouse [4]; [9]): improved the dementia | Survibal percentage of cells when admixed with cytotoxic factor (%) Hydrogen peroxide (PC12-HS cells [5]; NK-4 50 ng/ml): 50% | Survibal percentage of cells when admixed with cytotoxic factor (%) Hydrogen peroxide (PC12-HS cells [5]; NK-4 500 ng/ml): 50% | Survibal percentage of cells when admixed with cytotoxic factor (%) Hydrogen peroxide (PC12-HS cells [5]; NK-4 5000 ng/ml): 70 ** % | Survibal percentage of cells when admixed with cytotoxic factor (%) Hydrogen peroxide (PC12-HS cells [5]; NK-4 50000 ng/ml): 90 ** % | concentration required for protection action against hydrogen peroxide injury (PC12-HS cells [5]; PC12-HS cells): 5,000 ng/ml | Survibal percentage of cells when admixed with cytotoxic factor (%) Hydrogen peroxide (PC12-HS cells [5]; PC12-HS cells, 200 μM hydrogen peroxide, 2 hours, NK-4 5 ng/ml): 51% | Passive avoidance reaction (APP Tg mouse [6]; dose 100 μg/kg body weight): 280 ± 20 s | Passive avoidance reaction (APP Tg mouse [6]; dose 500 μg/kg body weight): 243 ± 25 s | passive avoidance test (in words) (APP Tg mouse [6]; [9]): improved the dementia | Cerebellar volume (mm^3) ([7]; 20 μg/kg body weight): 76.0 ± 8.2* mm^3 | Number of Purkinje cells (cells) ([7]; 20 μg/kg body weight): 187 ± 37 cells | Number of granular cells (cells/20000 μm^2) ([7]; 20 μg/kg body weight): 408 ± 8 cells/20000 μm^2 | Cerebellar volume (mm^3) ([7]; 100 μg/kg body weight): 77.0 ± 2.8* mm^3 | Number of Purkinje cells (cells) ([7]; 100 μg/kg body weight): 252 ± 29 cells | Number of granular cells (cells/20000 μm^2) ([7]; 100 μg/kg body weight): 419 ± 6 cells/20000 μm^2 | Cerebellar volume (mm^3) ([7]; 500 μg/kg body weight): 80.5 ± 10.8* mm^3 | Number of Purkinje cells (cells) ([7]; 500 μg/kg body weight): 231 ± 41 cells | Number of granular cells (cells/20000 μm^2) ([7]; 500 μg/kg body weight): 436 ± 7 cells/20000 μm^2 | Number of subject (head) with apparent demyelination in cerebellar white matter ([7]; 20 μg/kg body weight): 4 head | Number of subject (head) with apparent demyelination in cerebellar white matter ([7]; 100 μg/kg body weight): 1 head | Number of subject (head) with apparent demyelination in cerebellar white matter ([7]; 500 μg/kg body weight): 0 head | Survibal percentage of cells when admixed with cytotoxic factor (%) Nutrition starvation (PC12-HS cells [8]; NK-4 500 ng/ml): 78 ** % | Survibal percentage of cells when admixed with cytotoxic factor (%) Nutrition starvation (PC12-HS cells [8]; NK-4 5000 ng/ml): 64 ** % | concentration required for protection action against nutrition starvation (PC12-HS cells [8]; PC12-HS cells): 500 ng/mL | Survibal percentage of cells when admixed with cytotoxic factor (%) Nutrition starvation (PC12-HS cells [8]; PC12-HS cells, FBS-free medium, 3 days, NK-4 50 ng/ml, control free of cytotoxic factor = 100): 47%
